# Test results as given in ChEMBL document CHEMBL3797052 (Eur J Med Chem, 2016).
# What was measured:
# Assay type in all cases: functional
# MDA-MB-231 = test: Antiproliferative activity against human MDA-MB-231 cells assessed as cell growth at 10^-7 M after 48 hrs by sulforhodamine B assay; conditions: MDA-MB-231, 48 h, read-out: Activity
# A498 = test: Antiproliferative activity against human A498 cells assessed as cell growth at 10^-6 M after 48 hrs by sulforhodamine B assay; conditions: A498, 48 h, read-out: Activity
# NCI-H322M = test: Antiproliferative activity against human NCI-H322M cells assessed as cell growth at 10^-6 M after 48 hrs by sulforhodamine B assay; conditions: read-out: Activity
# [1] = Antiproliferative activity against human IGROV1 cells assessed as cell growth at 10^-6 M after 48 hrs by sulforhodamine B assay; conditions: IGROV-1, 48 h, read-out: Activity
# SR = test: Antiproliferative activity against human SR cells assessed as cell growth at 10^-8 M after 48 hrs by sulforhodamine B assay; conditions: read-out: Activity
# [2] = Antiproliferative activity against human BT549 cells assessed as growth inhibition after 48 hrs by sulforhodamine B assay; conditions: BT-549, 48 h
# SK-MEL-5 = test: Antiproliferative activity against human SK-MEL-5 cells assessed as cell growth at 10^-8 M after 48 hrs by sulforhodamine B assay; conditions: SK-MEL-5, 48 h, read-out: Activity
# CCRF-CEM = test: Antiproliferative activity against human CCRF-CEM cells assessed as cell growth at 10^-4 M after 48 hrs by sulforhodamine B assay; conditions: read-out: Activity
# [3] = Antiproliferative activity against human Caki1 cells assessed as cell growth at 10^-4 M after 48 hrs by sulforhodamine B assay; conditions: CAKI-1, 48 h, read-out: Activity
# 786-0 [4] = test: Antiproliferative activity against human 786-0 cells assessed as cell growth at 10^-8 M after 48 hrs by sulforhodamine B assay; conditions: 786-0, 48 h, read-out: Activity
# T47D = test: Antiproliferative activity against human T47D cells assessed as growth inhibition after 48 hrs by sulforhodamine B assay
# NCI-H460 = test: Antiproliferative activity against human NCI-H460 cells assessed as growth inhibition after 48 hrs by sulforhodamine B assay; conditions: NCI-H460, 48 h
# [5] = Antiproliferative activity against human Hs 578T cells assessed as cell growth at 10^-4 M after 48 hrs by sulforhodamine B assay; conditions: read-out: Activity
# MDA-MB-468 [6] = test: Antiproliferative activity against human MDA-MB-468 cells assessed as cell growth at 10^-7 M after 48 hrs by sulforhodamine B assay; conditions: MDA-MB-468, 48 h, read-out: Activity
# [7] = Antiproliferative activity against human UACC62 cells assessed as cell growth at 10^-6 M after 48 hrs by sulforhodamine B assay; conditions: UACC-62, 48 h, read-out: Activity
# NCI-H522 [8] = test: Antiproliferative activity against human NCI-H522 cells assessed as cell growth at 10^-4 M after 48 hrs by sulforhodamine B assay; conditions: NCI-H522, 48 h, read-out: Activity
# [9] = Antiproliferative activity against human UACC62 cells assessed as cell growth at 10^-8 M after 48 hrs by sulforhodamine B assay; conditions: UACC-62, 48 h, read-out: Activity
# [10] = Antiproliferative activity against human SF539 cells assessed as cell growth at 10^-7 M after 48 hrs by sulforhodamine B assay; conditions: SF-539, 48 h, read-out: Activity
# [11] = Antiproliferative activity against human DU145 cells assessed as cell growth at 10^-7 M after 48 hrs by sulforhodamine B assay; conditions: DU-145, 48 h, read-out: Activity
# [12] = Antiproliferative activity against human TK10 cells assessed as cell growth at 10^-4 M after 48 hrs by sulforhodamine B assay; conditions: TK-10, 48 h, read-out: Activity
# [13] = Antiproliferative activity against human RXF393 cells assessed as cell growth at 10^-8 M after 48 hrs by sulforhodamine B assay; conditions: RXF 393, 48 h, read-out: Activity
# [14] = Antiproliferative activity against human BT549 cells assessed as cell growth at 10^-8 M after 48 hrs by sulforhodamine B assay; conditions: BT-549, 48 h, read-out: Activity
# MCF7 [15] = test: Antiproliferative activity against human MCF7 cells assessed as cell growth at 10^-7 M after 48 hrs by sulforhodamine B assay; conditions: MCF7, 48 h, read-out: Activity
# [16] = Antiproliferative activity against human RXF393 cells assessed as cell growth at 10^-6 M after 48 hrs by sulforhodamine B assay; conditions: RXF 393, 48 h, read-out: Activity
# [17] = Antiproliferative activity against human LOXIMVI cells assessed as cell growth at 10^-4 M after 48 hrs by sulforhodamine B assay; conditions: LOX IMVI, read-out: Activity
# KM12 = test: Antiproliferative activity against human KM12 cells assessed as growth inhibition after 48 hrs by sulforhodamine B assay; conditions: KM12, 48 h
# [18] = Antiproliferative activity against human SKOV3 cells assessed as cell growth at 10^-4 M after 48 hrs by sulforhodamine B assay; conditions: SK-OV-3, 48 h, read-out: Activity
# NCI-H522 [19] = test: Antiproliferative activity against human NCI-H522 cells assessed as cell growth at 10^-6 M after 48 hrs by sulforhodamine B assay; conditions: NCI-H522, 48 h, read-out: Activity
# MDA-MB-468 [20] = test: Antiproliferative activity against human MDA-MB-468 cells assessed as cell growth at 10^-6 M after 48 hrs by sulforhodamine B assay; conditions: MDA-MB-468, 48 h, read-out: Activity
# 786-0 [21] = test: Antiproliferative activity against human 786-0 cells assessed as cell growth at 10^-7 M after 48 hrs by sulforhodamine B assay; conditions: 786-0, 48 h, read-out: Activity
# MCF7 [22] = test: Antiproliferative activity against human MCF7 cells assessed as cell growth at 10^-4 M after 48 hrs by sulforhodamine B assay; conditions: MCF7, 48 h, read-out: Activity
# NCI-H226 = test: Antiproliferative activity against human NCI-H226 cells assessed as cell growth at 10^-6 M after 48 hrs by sulforhodamine B assay; conditions: NCI-H226, 48 h, read-out: Activity
# [23] = Antiproliferative activity against human SKOV3 cells assessed as cell growth at 10^-6 M after 48 hrs by sulforhodamine B assay; conditions: SK-OV-3, 48 h, read-out: Activity
# [24] = Antiproliferative activity against human OVCAR5 cells assessed as cell growth at 10^-8 M after 48 hrs by sulforhodamine B assay; conditions: OVCAR-5, 48 h, read-out: Activity
# [25] = Antiproliferative activity against human SF268 cells assessed as cell growth at 10^-6 M after 48 hrs by sulforhodamine B assay; conditions: SF-268, 48 h, read-out: Activity
# [26] = Antiproliferative activity against human MOLT4 cells assessed as cell growth at 10^-6 M after 48 hrs by sulforhodamine B assay; conditions: MOLT-4, 48 h, read-out: Activity
# [27] = read-out: LC50 (the source's name)
smiles,measurement,setting,value
CNC(=O)c1cc(Oc2ccc3nc(NC(=O)c4cc(C(F)(F)F)cc(C(F)(F)F)c4)sc3c2)ccn1,growth at 0.1 µM,MDA-MB-231,107%
same,growth at 1 µM,A498,66%
same,growth at 1 µM,NCI-H322M,52%
same,growth at 1 µM,[1],90%
same,growth at 0.01 µM,SR,91%
same,GI50,[2],3.05 µM
same,TGI,[2],12.4 µM
same,CC50,[2]; [27],> 100 µM
same,growth at 0.01 µM,SK-MEL-5,95%
same,growth at 100 µM,CCRF-CEM,25%
same,growth at 100 µM,[3],-63%
same,growth at 0.01 µM,786-0 [4],98%
same,GI50,T47D,3.04 µM
same,TGI,T47D,9.18 µM
same,CC50,T47D; [27],> 100 µM
same,GI50,NCI-H460,3.83 µM
same,LC50 (concentration killing 50% of cells),NCI-H460,58.9 µM
same,TGI,NCI-H460,14.6 µM
same,growth at 100 µM,[5],-42%
same,growth at 0.1 µM,MDA-MB-468 [6],96%
same,growth at 1 µM,[7],84%
same,growth at 100 µM,NCI-H522 [8],-61%
same,growth at 0.01 µM,[9],89%
same,growth at 0.1 µM,[10],91%
same,growth at 0.1 µM,[11],105%
same,growth at 100 µM,[12],-58%
same,growth at 0.01 µM,[13],95%
same,growth at 0.01 µM,[14],97%
same,growth at 0.1 µM,MCF7 [15],89%
same,growth at 1 µM,[16],97%
same,growth at 100 µM,[17],-51%
same,GI50,KM12,2.7 µM
same,LC50,KM12,92.7 µM
same,TGI,KM12,11 µM
same,growth at 100 µM,[18],-56%
same,growth at 1 µM,NCI-H522 [19],96%
same,growth at 1 µM,MDA-MB-468 [20],95%
same,growth at 0.1 µM,786-0 [21],90%
same,growth at 100 µM,MCF7 [22],-49%
same,growth at 1 µM,NCI-H226,101%
same,growth at 1 µM,[23],90%
same,growth at 0.01 µM,[24],96%
same,growth at 1 µM,[25],79%
same,growth at 1 µM,[26],85%
